One assay deals with T1, muscarinic M3 receptor (Cavia porcellus, UniProt H0W1Z3).
T1 construct: trachea was excised, and cut at every two tracheal cartilages to prepare tissue specimens; from tissue; host or cells: isolated guinea pig trachea (male Hartley)
Put plainly: Muscarinic M3 antagonistic action in isolated guinea pig trachea (carbachol-induced contraction, Schild method). The following applies: compound applied 15 minutes before carbachol. It counts as cell-based. How it is done: Muscarinic M3 Antagonistic Action in Isolated Guinea Pig Trachea
Male Hartley guinea pigs (350 to 600 g) were sacrificed by bleeding, and trachea was excised, and cut at every two tracheal cartilages to prepare tissue specimens. Each tissue specimen was kept warm at 37° C., suspended with a resting tension of 1 g in a 5-mL Magnus bath filled with a Krebs carbonate buffer containing indomethacin (1 μM) bubbled with 95% O2/5% CO2, and left for 60 minutes as a stabilization period. […] After the measurement, the tissue specimen was immediately washed, and left for 60 minutes as a stabilization period before the next contraction reaction, and the tissue specimen of which EC50 for the carbachol-induced contraction reaction was stabilized was considered as a control. Each test compound was applied 15 minutes before the addition of carbachol. The affinity (pA2) of the test compound was obtained by the Schild method (Arunlakshana, O. and Schild, H. O., Brit. J. Pharmacol., 1959, 14, 48-58).

Another assay deals with T2, muscarinic M2 receptor (Cavia porcellus, UniProt H0VRN8).
T2 construct: left atria were excised to prepare tissue specimens; from tissue; host or cells: isolated guinea pig left atrium (male Hartley)
T2 sequence (H0VRN8 1-466): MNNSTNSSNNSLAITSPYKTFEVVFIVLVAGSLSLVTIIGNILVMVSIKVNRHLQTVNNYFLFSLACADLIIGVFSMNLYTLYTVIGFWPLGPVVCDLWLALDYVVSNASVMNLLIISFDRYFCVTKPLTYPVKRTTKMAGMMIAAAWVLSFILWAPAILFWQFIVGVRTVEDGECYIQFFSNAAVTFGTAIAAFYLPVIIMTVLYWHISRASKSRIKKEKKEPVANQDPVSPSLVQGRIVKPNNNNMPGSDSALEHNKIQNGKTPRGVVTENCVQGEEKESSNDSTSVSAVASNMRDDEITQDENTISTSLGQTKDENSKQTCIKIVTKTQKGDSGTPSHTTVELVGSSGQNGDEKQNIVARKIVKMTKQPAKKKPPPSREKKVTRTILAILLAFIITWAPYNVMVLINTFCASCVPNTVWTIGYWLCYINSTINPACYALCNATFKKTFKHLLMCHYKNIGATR
Put plainly: Muscarinic M2 antagonistic action in isolated guinea pig left atrium (carbachol-induced relaxation, Schild method). It is filed as cell-based. The following applies: compound applied 30 minutes before carbachol. How it is done:
Muscarinic M2 Antagonistic Action in Isolated Guinea Pig Left Atrium […] Each tissue specimen was kept warm at 37° C., suspended with a resting tension of 0.5 g in a 5-mL Magnus bath filled with a Krebs carbonate buffer bubbled with 95% O2/5% CO2. Then, contraction evoked by field electrical stimulation (4 Hz, 2 msec, 1.5×threshold potential) was measured. After a stabilization period of 60 minutes, carbachol-induced relaxation was isometrically measured and recorded by the cumulative method from 10^−8 M with an interval of 90 seconds for one concentration in an equal ratio of 3. After the measurement, the tissue specimen was immediately washed, and left for 45 minutes as a stabilization period before the next observation. The tissue specimen of which EC50 for the carbachol-induced relaxation was stabilized was considered as a control. Each test compound was applied 30 minutes before the addition of carbachol. The affinity (pA2) of the test compound was obtained in the same manner as in the case of the trachea.

In assay [1] the test system is Bronchoconstriction in Guinea Pigs (induced with acetylcholine). Put plainly: Effect on bronchoconstriction in guinea pigs (via inhalation administration), Konzett method. The following applies: guinea pig, intratracheal administration 10 μL g/head, 24 hours after administration, acetylcholine 4 μg/kg i.v., versus control group; for inhibition in vivo at 0.01 mg: Cavia porcellus, iv, read-out: Percent of inhibition of bronchoconstriction (%). It counts as in vivo. How it is done: Effect on Bronchoconstriction in Guinea Pigs (Via Inhalation Administration)
The test was performed according to the method of Konzett et al. (Arch. Exp. Path Pharmak., 1940, 195, 71-74). Male Hartley guinea pigs (350 to 600 g) were anesthetized with urethane (1.8 g/kg, i.p.), and then a cannula for drug administration was inserted into each left jugular vein. After the immobilization with decamethonium (2 mg/kg, i.v.), a tracheal cannula was inserted, and controlled respiration was attained by a respirator (Harvard). Bronchoconstriction was measured as changes of airway pressure with a pressure transducer (Nihon Kohden Corp.). Each test compound was administered (10 μL g/head) from dissected trachea by using a device for intratracheal administration of liquid for guinea pigs (Penn Century), and after suture, the animals were returned to usual breeding. After 24 hours, acetylcholine (4 μg/kg, i.v.) was administered to induce bronchoconstriction, and inhibitory activity on bronchoconstriction was calculated as percent inhibition comparing to the change of airway pressure in control group was obtained.

Where [2] appears, read: isolated guinea pig left atrium.
Setting [3] is: pA2 Trachea M3, isolated guinea pig trachea.
Where [4] appears, read: pA2 Left atrium M2, isolated guinea pig left atrium.
The mark [5] stands for this setting: isolated guinea pig trachea, read-out: pA2 Trachea M3 (converted).
[6] abbreviates: isolated guinea pig left atrium, read-out: pA2 Left atrium M2 (converted).

The values that follow come from US20100152261A1 (MITSUBISHI TANABE PHARMA CORPORATION, priority 2005, published 2010).

Structures are written as SMILES. Like-named read-outs stand apart in the source and are kept apart here.

T1 sequence (H0W1Z3 1-590): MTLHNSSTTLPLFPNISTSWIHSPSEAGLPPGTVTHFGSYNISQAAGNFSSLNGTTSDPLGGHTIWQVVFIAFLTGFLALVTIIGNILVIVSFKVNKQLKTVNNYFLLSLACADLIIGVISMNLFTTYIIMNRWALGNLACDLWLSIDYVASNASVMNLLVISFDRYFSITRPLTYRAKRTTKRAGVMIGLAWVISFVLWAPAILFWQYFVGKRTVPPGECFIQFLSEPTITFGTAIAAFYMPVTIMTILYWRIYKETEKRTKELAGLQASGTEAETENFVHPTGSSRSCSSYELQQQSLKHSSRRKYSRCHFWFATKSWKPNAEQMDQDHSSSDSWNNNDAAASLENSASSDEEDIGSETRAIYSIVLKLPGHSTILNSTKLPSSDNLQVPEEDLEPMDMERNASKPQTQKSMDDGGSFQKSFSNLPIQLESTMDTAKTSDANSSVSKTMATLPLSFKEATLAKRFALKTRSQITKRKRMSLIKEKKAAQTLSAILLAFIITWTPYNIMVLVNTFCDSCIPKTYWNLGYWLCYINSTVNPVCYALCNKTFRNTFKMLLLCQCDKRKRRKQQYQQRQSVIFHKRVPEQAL

As to `Cc1n(Cc2ccc(F)cc2)cc[n+]1[C@H]1CC[C@@H](C(C(N)=O)(c2ccccc2)c2ccccc2)C1.[Br-]` (relative stereo) [Example 7, 3-(cis-3-(Carbamoyl(diphenyl)methyl)cyclopentyl)-1-(4-fluoro-benzyl)-2-methyl-1-3H-imidazol-1-ium bromide], the “pA2 Trachea M3” value on muscarinic M3 receptor (isolated guinea pig trachea) is reported as 9.6. On muscarinic M2 receptor (setting [2]), the “pA2 Left atrium M2” value came to 8.5. In assay [1], the “Percent of inhibition of bronchoconstriction (%)” value (from here on “Percent of inhibition … (%)”) turned out to be 90%.

As for `Cc1cccc(C[n+]2ccn([C@H]3CC[C@@H](C(C(N)=O)(c4ccccc4)c4ccccc4)C3)c2C)c1` (relative stereo) [Example 8, 3-(cis-3-(Carbamoyl(diphenyl)methyl)cyclopentyl)-2-methyl-1-(3-methyl-benzyl)-3H-imidazol-1-ium bromide], the Kb at muscarinic M3 receptor (setting [3]) is 0.316 nM; at muscarinic M2 receptor (setting [4]), 10 nM. The inhibition in vivo at 0.01 mg in assay [1] came to 90%.

On to `Cc1n(CC2CO2)cc[n+]1[C@H]1CC[C@@H](C(C(N)=O)(c2ccccc2)c2ccccc2)C1.[Br-]` (relative stereo) [Example 22], for which the “pA2 Trachea M3” value at muscarinic M3 receptor (isolated guinea pig trachea) is on record as 9. The “pA2 Left atrium M2” value at muscarinic M2 receptor (setting [2]) worked out at 7.7. In assay [1], the “Percent of inhibition … (%)” value came to 80%.

For the molecule `COCC[n+]1ccn([C@H]2CC[C@@H](C(C(N)=O)(c3ccccc3)c3ccccc3)C2)c1C` (relative stereo) [Example 26, 3-(cis-3-(Carbamoyl(diphenyl)methyl)cyclopentyl)-1-(2-methoxy-ethyl)-2-methyl-3H-imidazol-1-ium bromide], the Kb was 0.2 nM on muscarinic M3 receptor (setting [3]) and 12.6 nM on muscarinic M2 receptor (setting [4]). In assay [1], the inhibition in vivo at 0.01 mg came out at 70%.

`Cc1n([C@H]2CC[C@@H](C(C(N)=O)(c3ccccc3)c3ccccc3)C2)cc[n+]1CC1CC1` (relative stereo) [Example 30, 3-(cis-3-(Carbamoyl(diphenyl)methyl)cyclopentyl)-1-cyclopropylmethyl-2-methyl-3H-imidazol-1-ium bromide]: the inhibition in vivo at 0.01 mg in assay [1] amounted to 80%.

For the molecule `Cc1n([C@H]2CC[C@@H](C(C(N)=O)(c3ccccc3)c3ccccc3)C2)cc[n+]1CC[C@H]1CO1.[Br-]` (relative stereo) [Example 36, 3-(cis-3-(Carbamoyl(diphenyl)methyl)cyclopentyl)-2-methyl-1-(2-(S)-oxiranyl-ethyl)-3H-imidazo-1-ium bromide], on muscarinic M3 receptor (isolated guinea pig trachea), the “pA2 Trachea M3” value is reported as 9. Also, at muscarinic M2 receptor (setting [2]), the “pA2 Left atrium M2” value is 7.7. For the same molecule, the “Percent of inhibition … (%)” value in assay [1] is 90%.

`Cc1n([C@H]2CC[C@@H](C(C(N)=O)(c3ccccc3)c3ccccc3)C2)cc[n+]1C(F)F` (relative stereo) [Example 37, 3-(cis-3-(Carbamoyl(diphenyl)methyl)cyclopentyl)-1-difluoromethyl-2-methyl-3H-imidazol-1-ium bromide] had a Kb at muscarinic M3 receptor (setting [3]) of 0.794 nM. In addition, the inhibition in vivo at 0.01 mg in assay [1] was 80%.

`Cc1n([C@H]2CC[C@@H](C(C(N)=O)(c3ccccc3)c3ccccc3)C2)cc[n+]1CC1CCC1` (relative stereo) [Example 40, 3-(cis-3-(Carbamoyl(diphenyl)methyl)cyclopentyl)-1-cyclobutylmethyl-2-methyl-3H-imidazol-1-ium bromide]: the Kb on muscarinic M3 receptor (setting [3]) is 0.398 nM; at muscarinic M2 receptor (setting [4]), 7.94 nM. Also, in assay [1], the inhibition in vivo at 0.01 mg came out at 100%.

In the case of `CC1=[N+](C)CCN1[C@H]1CC[C@@H](C(C(N)=O)(c2ccccc2)c2ccccc2)C1` (relative stereo) [Example 56, 3-(cis-3-(Carbamoyl(diphenyl)methyl)cyclopentyl)-1,2-dimethyl-4,5-dihydro-3H-imidazol-1-ium iodide], the Kb on muscarinic M3 receptor (setting [3]) was 2.51 nM; at muscarinic M2 receptor (setting [4]), 31.6 nM. Also, the inhibition in vivo at 0.01 mg in assay [1] is 100%.

For the molecule `COCC[n+]1ccn([C@@H]2CC[C@H](C(C(N)=O)(c3ccccc3)c3ccccc3)C2)c1C` [Example 77, 3-((1R,3S)-3-(Carbamoyl(diphenyl)methyl)cyclopentyl)-1-(2-methoxyethyl)-2-methyl-3H-imidazol-1-ium para-toluenesulfonate], the Kb at muscarinic M3 receptor (setting [5]) is 0.251 nM; at muscarinic M2 receptor (setting [6]), 6.31 nM.

Regarding `C=C(CC)[n+]1ccn([C@H]2CC[C@@H](C(C(N)=O)(c3ccccc3)c3ccccc3)C2)c1C.[Br-]` [Example 78, 3-((1S,3R)-3-(Carbamoyl(diphenyl)methyl)cyclopentyl)-1-buten-2-yl-2-methyl-3H-imidazol-1-ium bromide], on muscarinic M3 receptor (isolated guinea pig trachea), the “pA2 Trachea M3” value was determined as 9.2. Also, on muscarinic M2 receptor (setting [2]), the “pA2 Left atrium M2” value came out at 7.9.

For `Cc1n([C@H]2CC[C@@H](C(C(N)=O)(c3ccccc3)c3ccccc3)C2)cc[n+]1CCC(C)C` [Example 79, 3-((1S,3R)-3-(Carbamoyl(diphenyl)methyl)cyclopentyl)-2-methyl-1-(3-methyl-butyl)-3H-imidazol-1-ium bromide], the Kb is 0.631 nM at muscarinic M3 receptor (setting [3]) and 63.1 nM on muscarinic M2 receptor (setting [4]).

With `CC#CC[n+]1ccn([C@H]2CC[C@@H](C(C(N)=O)(c3ccccc3)c3ccccc3)C2)c1C` [Example 82], the Kb on muscarinic M3 receptor (setting [3]) was 0.794 nM; on muscarinic M2 receptor (setting [4]) it was 63.1 nM.

Regarding `Cc1n([C@H]2CC[C@@H](C(C(N)=O)(c3ccccc3)c3ccccc3)C2)cc[n+]1CCO.[Br-]` [Example 84, 3-((1S,3R)-3-(Carbamoyl(diphenyl)methyl)cyclopentyl)-1-hydroxyethyl-2-methyl-3H-imidazol-1-ium bromide], on muscarinic M3 receptor (isolated guinea pig trachea), the “pA2 Trachea M3” value is recorded as 8.2. Also, the “pA2 Left atrium M2” value on muscarinic M2 receptor (setting [2]) is given as 6.3.

Turning to `Cc1n([C@H]2CC[C@@H](C(C(N)=O)(c3ccccc3)c3ccccc3)C2)cc[n+]1Cc1ccc(F)cc1` [Example 85, 3-((1S,3R)-3-(Carbamoyl(diphenyl)methyl)cyclopentyl)-1-(4-fluorobenzyl)-2-methyl-3H-imidazol-1-ium bromide], the Kb on muscarinic M3 receptor (setting [3]) is 0.794 nM; at muscarinic M2 receptor (setting [4]), 31.6 nM.

`Cc1n([C@@H]2CC[C@H](C(C(N)=O)(c3ccccc3)c3ccccc3)C2)cc[n+]1C(F)F` [Example 92, 3-((1R,3S)-3-(Carbamoyl(diphenyl)methyl)cyclopentyl)-1-difluoromethyl-2-methyl-3H-imidazol-1-ium bromide]: the Kb was 0.398 nM on muscarinic M3 receptor (setting [3]) and 12.6 nM at muscarinic M2 receptor (setting [4]).

`Cc1n([C@H]2CC[C@@H](C(C(N)=O)(c3ccccc3)c3ccccc3)C2)cc[n+]1C` [Example 94, 3-((1S,3R)-3-(Carbamoyl(diphenyl)methyl)cyclopentyl)-1,2-dimethyl-3H-imidazol-1-ium para-toluenesulfonate]: the figures for the Kb on muscarinic M3 receptor (setting [5]) and at muscarinic M2 receptor (setting [6]) were 0.794 nM and 100 nM, respectively.

Turning to `CC(C)[N+]1(C)[C@@H]2CC[C@H]1C[C@@H](OC(=O)C(CO)c1ccccc1)C2` (stereo partly drawn) [Ipratropium, reference compound], the Kb at muscarinic M3 receptor (setting [3]) is 1 nM; at muscarinic M2 receptor (setting [4]), 3.98 nM.
